Columns and labels:
Dipeptidyl peptidase 8 = Dipeptidyl peptidase 8 (Homo sapiens, UniProt Q6V1X1); experiment: Inhibition of human recombinant DPP8 pre-incubated with compound for 15 mins before substrate addition by luminescence assay
Dipeptidyl peptidase 9 = Dipeptidyl peptidase 9 (Homo sapiens, UniProt Q86TI2); experiment: Inhibition of human recombinant DPP9 pre-incubated with compound for 15 mins before substrate addition by luminescence assay
[1] = Clearance in rat at 5 mg/kg, iv; type: ADME, organism-based; parameters: dose 5 mg/kg, route intravenous; details: in vivo
[2] = Volume of distribution at steady state in rat at 5 mg/kg, iv; type: ADME, organism-based; parameters: dose 5 mg/kg, route intravenous; details: in vivo, read-out: Vdss
[3] = Half life in rat at 5 mg/kg, iv; type: ADME, organism-based; parameters: dose 5 mg/kg, route intravenous; details: in vivo
[4] = Cmax in rat at 10 mg/kg, po; type: ADME, organism-based; parameters: dose 10 mg/kg, route oral; details: in vivo
[5] = AUClast in rat at 10 mg/kg, po; type: ADME, organism-based; parameters: time 0 - last, dose 10 mg/kg, route oral; details: plasma
[6] = Half life in rat at 10 mg/kg, po; type: ADME, organism-based; parameters: dose 10 mg/kg, route oral; details: in vivo
[7] = Oral bioavailability in rat at 10 mg/kg; type: ADME, organism-based; details: in vivo

Chain of Dipeptidyl peptidase 9 (Q86TI2 whole entry): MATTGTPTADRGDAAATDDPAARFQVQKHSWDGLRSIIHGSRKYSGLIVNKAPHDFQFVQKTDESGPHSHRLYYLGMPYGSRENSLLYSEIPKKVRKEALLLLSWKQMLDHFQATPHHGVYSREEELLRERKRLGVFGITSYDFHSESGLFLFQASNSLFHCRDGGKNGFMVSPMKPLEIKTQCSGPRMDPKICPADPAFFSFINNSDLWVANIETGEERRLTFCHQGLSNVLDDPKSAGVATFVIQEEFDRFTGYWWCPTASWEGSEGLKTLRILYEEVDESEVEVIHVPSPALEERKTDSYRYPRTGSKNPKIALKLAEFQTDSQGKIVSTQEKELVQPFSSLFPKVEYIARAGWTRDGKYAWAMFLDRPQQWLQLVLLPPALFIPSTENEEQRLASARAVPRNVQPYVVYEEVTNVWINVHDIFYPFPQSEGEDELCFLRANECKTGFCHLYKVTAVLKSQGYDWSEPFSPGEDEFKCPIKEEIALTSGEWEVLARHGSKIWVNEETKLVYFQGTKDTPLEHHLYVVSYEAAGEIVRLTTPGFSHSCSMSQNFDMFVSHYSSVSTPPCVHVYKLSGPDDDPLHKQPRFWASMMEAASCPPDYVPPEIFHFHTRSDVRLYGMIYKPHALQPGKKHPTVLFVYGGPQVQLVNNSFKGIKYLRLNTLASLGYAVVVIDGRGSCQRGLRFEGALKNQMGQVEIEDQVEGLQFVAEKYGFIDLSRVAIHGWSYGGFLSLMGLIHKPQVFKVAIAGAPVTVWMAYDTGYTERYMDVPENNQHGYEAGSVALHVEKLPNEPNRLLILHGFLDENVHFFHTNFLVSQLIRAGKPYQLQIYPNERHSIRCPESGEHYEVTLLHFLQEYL
Chain of Dipeptidyl peptidase 8 (Q6V1X1 whole entry): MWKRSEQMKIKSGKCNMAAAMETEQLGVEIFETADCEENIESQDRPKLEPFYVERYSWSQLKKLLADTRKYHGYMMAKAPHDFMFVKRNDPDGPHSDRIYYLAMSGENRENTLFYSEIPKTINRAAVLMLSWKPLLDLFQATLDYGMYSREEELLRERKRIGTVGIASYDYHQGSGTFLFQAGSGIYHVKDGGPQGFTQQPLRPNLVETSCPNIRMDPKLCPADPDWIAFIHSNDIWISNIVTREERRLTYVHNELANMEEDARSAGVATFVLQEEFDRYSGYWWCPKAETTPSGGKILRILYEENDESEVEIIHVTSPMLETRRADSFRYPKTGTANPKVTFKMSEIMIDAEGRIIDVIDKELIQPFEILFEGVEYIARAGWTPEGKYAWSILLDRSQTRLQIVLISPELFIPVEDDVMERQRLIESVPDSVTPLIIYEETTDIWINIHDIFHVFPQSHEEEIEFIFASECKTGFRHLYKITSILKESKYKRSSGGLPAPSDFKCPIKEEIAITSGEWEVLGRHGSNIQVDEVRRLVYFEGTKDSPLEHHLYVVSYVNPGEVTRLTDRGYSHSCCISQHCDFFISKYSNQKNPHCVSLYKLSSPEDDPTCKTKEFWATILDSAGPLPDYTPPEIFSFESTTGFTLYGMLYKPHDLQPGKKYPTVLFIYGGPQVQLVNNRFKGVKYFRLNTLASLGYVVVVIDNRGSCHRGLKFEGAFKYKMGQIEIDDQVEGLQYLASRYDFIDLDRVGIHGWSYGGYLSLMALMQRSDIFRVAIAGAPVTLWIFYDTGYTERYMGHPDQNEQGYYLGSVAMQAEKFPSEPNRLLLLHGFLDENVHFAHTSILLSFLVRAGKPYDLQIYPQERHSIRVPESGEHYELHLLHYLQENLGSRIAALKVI

IC50 (Dipeptidyl peptidase 8) [µM]	IC50 (Dipeptidyl peptidase 9) [µM]	clearance [1] [mL/min/kg]	Vd [2] [L/kg]	half-life [3] [h]	Cmax [4] [ng/mL]	AUC(0-t) [5] [ng·h/mL]	half-life [6] [h]	bioavailability [7] [%]	SMILES
> 100	> 100								Cn1c(=O)n(Cc2ccc(Cl)cc2C#N)c2c(N3CCC[C@@H](N)C3)ccnc21
> 100	> 100								Cn1c(=O)n(Cc2ccccc2C#N)c2c(N3CC(N)C3)ccnc21
> 100	> 100	73.2	4.22	0.8	103	209	3.7	9	Cn1c(=O)n(Cc2ccccc2C#N)c2c(N3CCC[C@@H](N)C3)cc(C(N)=O)nc21

— ChEMBL document CHEMBL3351303, “Discovery of Imigliptin, a Novel Selective DPP-4 Inhibitor for the Treatment of Type 2 Diabetes” (ACS Med Chem Lett, 2014)
